The values that follow are results of earlier work, collected in patent publication US20180305742A1, “USE OF ESTROGENIC COMPOUNDS TO […] BACTERIAL COMPOSITION OF VAGINAL COMMUNITIES” (University of Idaho, priority 2017, published 2018).

The series relates to estrogen receptor.

Regarding `C[C@]12CC[C@@H]3c4ccc(O)cc4CC[C@H]3[C@@H]1C[C@@H](O)[C@@H]2O` [Estriol, estriol], the “potency relative to estradiol” value (as potent as estradiol) is 8%. For the same molecule, the “potency relative to estrone” value (as potent as estrone) is 14%.
